Data from patent publication US8287923B2, “Compositions and methods for treating immune disorders” (priority 2005, dated 2012).

Tested on: normal human epidermal keratinocytes (NHEK)
Assay: Affymetrix gene array analysis, autoantigen gene expression
Assay type: cell-based
Description: The gene array experiment was performed at the Core Facility of Genomics of the Medical College of Georgia, according to the instructions of the manufacturer (Affymetrix, Santa Clara, Calif.). Briefly, NHEK and OSC2 cells treated with 100 μM EGCG for different time period were extracted for total RNA, the RNA was processed for probes and hybridized with a cDNA microarray (HuG133A, Affymetrix) which represents 22,283 human series. DNA chips were read with a Hewlett-Packard GeneArray Scanner at a resolution of […] and were analyzed with the GeneSpring software (Silicon Genetics, Redwood City, Calif.). Details of this analysis will be published elsewhere (Hsu et al., manuscript in preparation).
Gene assays provide a valuable tool for studying the broad response of cells to agents, and we have used this approach to compare the differential effects of GTPP on gene expression in NHEK and human oral squamous carcinoma cells (Hsu, et al, manuscript in preparation). […] See also Hsu, S. et al. (2005) JPET 315:805-811, which is incorporated by reference in its entirety.

SMILES: O=C(O[C@@H]1Cc2c(O)cc(O)cc2O[C@@H]1c1cc(O)c(O)c(O)c1)c1cc(O)c(O)c(O)c1 [EGCG, (−)-epigallocatechin-3-gallate]
- genes either up- or down-regulated by at least 2-fold (100 uM EGCG, both cell types (NHEK, oral squamous carcinoma cells), 24 hrs post-treatment): approximately 2100 genes
- 60 kDa, SS-A/Ro (210438_x_at) expression, normalized (0.5 h, 100 μM): 0.71
- 60 kDa, SS-A/Ro (212852_s_at) expression, normalized (0.5 h, 100 μM): 0.60
- Ku autoantigen, 80 kDa (208642_s_at) expression, normalized (0.5 h, 100 μM): 1.29
- Ku autoantigen, 80 kDa (208643_s_at) expression, normalized (0.5 h, 100 μM): 2.34
- Nuclear antigen SP100 (202863_at) expression, normalized (0.5 h, 100 μM): 1.72
- Nuclear antigen SP100 (202864_s_at) expression, normalized (0.5 h, 100 μM): 3.12
- Nuclear antigen SP10075 kDa (213226_at) expression, normalized (0.5 h, 100 μM): 3.99
- RNA polymerase 1 (202692_s-at) expression, normalized (0.5 h, 100 μM): 0.50
- SS-B/La (201138_s_at) expression, normalized (0.5 h, 100 μM): 0.84
- SS-B/La (201139_s_at) expression, normalized (0.5 h, 100 μM): 0.71
- centromere protein C1 (20473_at) expression, normalized (0.5 h, 100 μM): 1.27
- coilin (203653_s_at) expression, normalized (0.5 h, 100 μM): 0.49
- coilin (203654_s_at) expression, normalized (0.5 h, 100 μM): 1.11
- fodrin-α (208611_s_at) expression, normalized (0.5 h, 100 μM): 0.41
- fodrin-α (215235_s_at) expression, normalized (0.5 h, 100 μM): 0.49
- golgin-67 (208797_s_at) expression, normalized (0.5 h, 100 μM): 1.26
- golgin-67 (208798_x_at) expression, normalized (0.5 h, 100 μM): 0.81
- golgin-67 (210425_x_at) expression, normalized (0.5 h, 100 μM): 0.50
- golgin-67 (213650_at) expression, normalized (0.5 h, 100 μM): 0.24
- scleroderma autoantigen 1, 75 kDa (213226_at) expression, normalized (0.5 h, 100 μM): 3.99
- spectrin-β non-erythrocyctic 1 (212071_s_at) expression, normalized (0.5 h, 100 μM): 0.91
- thyroid autoantigen 70 kDa (Ku antigen) (200792_at) expression, normalized (0.5 h, 100 μM): 1.15
- ADPRT [poly(ADP)-ribose polymerase] expression (0.5 h, 100 μM, vs time zero): 3.547 fold
- ANAP12 expression (0.5 h, 100 μM, vs time zero): 0.505 fold
- ANXA11 expression (0.5 h, 100 μM, vs time zero): 1.043 fold
- CALR expression (0.5 h, 100 μM, vs time zero): 0.71 fold
- CBARA1 expression (0.5 h, 100 μM, vs time zero): 0.506 fold
- CENPA expression (0.5 h, 100 μM, vs time zero): 7.677 fold
- CENPB expression (0.5 h, 100 μM, vs time zero): 0.506 fold
- CENPC1 expression (0.5 h, 100 μM, vs time zero): 1.269 fold
- CHD4 expression (0.5 h, 100 μM, vs time zero): 0.766 fold
- COL17A1 expression (0.5 h, 100 μM, vs time zero): 1.749 fold
- CTDSP1 expression (0.5 h, 100 μM, vs time zero): 0.71 fold
- CTDSP2 expression (0.5 h, 100 μM, vs time zero): 1.61 fold
- CTDSPL expression (0.5 h, 100 μM, vs time zero): 2.83 fold
- DLAT expression (0.5 h, 100 μM, vs time zero): 1.54 fold
- EPPK1 expression (0.5 h, 100 μM, vs time zero): 0.793 fold
- FBL expression (0.5 h, 100 μM, vs time zero): 1.64 fold
- FLJ31657 expression (0.5 h, 100 μM, vs time zero): 0.833 fold
- FLNB (Filamin B, β) expression (0.5 h, 100 μM, vs time zero): 1.379 fold
- FLNB (Filamin B, γ) expression (0.5 h, 100 μM, vs time zero): 0.72 fold
- G22P1 (Thyroid autoantigen, 70 kDa, Ku antigen) expression (0.5 h, 100 μM, vs time zero): 1.15 fold
- GMEB2 expression (0.5 h, 100 μM, vs time zero): 0.584 fold
- GOLGA1 expression (0.5 h, 100 μM, vs time zero): 0.398 fold
- GOLGA2 expression (0.5 h, 100 μM, vs time zero): 0.332 fold
- GOLGA3 expression (0.5 h, 100 μM, vs time zero): 0.533 fold
- GOLGA4 expression (0.5 h, 100 μM, vs time zero): 0.822 fold
- GOLGA5 expression (0.5 h, 100 μM, vs time zero): 1.566 fold
- GOLGB1 expression (0.5 h, 100 μM, vs time zero): 0.969 fold
- HARS expression (0.5 h, 100 μM, vs time zero): 1.27 fold
- HARSL expression (0.5 h, 100 μM, vs time zero): 1.12 fold
- HSA6591 expression (0.5 h, 100 μM, vs time zero): 0.456 fold
- HUMAUANTIG expression (0.5 h, 100 μM, vs time zero): 0.948 fold
- IMP-2 expression (0.5 h, 100 μM, vs time zero): 1.615 fold
- LAD1 expression (0.5 h, 100 μM, vs time zero): 0.799 fold
- LMO4 expression (repeat 1) (0.5 h, 100 μM, vs time zero): 0.272 fold
- LMO4 expression (repeat 2) (0.5 h, 100 μM, vs time zero): 0.6 fold
- MGC5560 expression (repeat 1) (0.5 h, 100 μM, vs time zero): 4.392 fold
- MGC5560 expression (repeat 2) (0.5 h, 100 μM, vs time zero): 7.07 fold
- NS (Nucleostemin) expression (0.5 h, 100 μM, vs time zero): 0.634 fold
- PDHB expression (0.5 h, 100 μM, vs time zero): 1.079 fold
- PDX1 expression (0.5 h, 100 μM, vs time zero): 1.103 fold
- PMSCL1, 75 kDa expression (0.5 h, 100 μM, vs time zero): 3.993 fold
- PMSCL2 expression (0.5 h, 100 μM, vs time zero): 0.959 fold
- POLR1B expression (0.5 h, 100 μM, vs time zero): 0.67 fold
- POLR1D expression (0.5 h, 100 μM, vs time zero): 0.90 fold
- POLR2A expression (repeat 1) (0.5 h, 100 μM, vs time zero): 0.13 fold
- POLR2A expression (repeat 2) (0.5 h, 100 μM, vs time zero): 1.03 fold
- POLR2B expression (0.5 h, 100 μM, vs time zero): 1.83 fold
- POLR2C expression (0.5 h, 100 μM, vs time zero): 1.32 fold
- POLR2D expression (0.5 h, 100 μM, vs time zero): 1.14 fold
- POLR2E expression (0.5 h, 100 μM, vs time zero): 0.45 fold
- POLR2F expression (0.5 h, 100 μM, vs time zero): 0.90 fold
- POLR2G expression (0.5 h, 100 μM, vs time zero): 1.09 fold
- POLR2H expression (0.5 h, 100 μM, vs time zero): 0.88 fold
- POLR3C expression (0.5 h, 100 μM, vs time zero): 0.90 fold
- POLR3G expression (0.5 h, 100 μM, vs time zero): 1.55 fold
- PSME3 expression (0.5 h, 100 μM, vs time zero): 2.554 fold
- RALY expression (0.5 h, 100 μM, vs time zero): 1.556 fold
- SART1 expression (0.5 h, 100 μM, vs time zero): 1.982 fold
- SLC25A16 expression (0.5 h, 100 μM, vs time zero): 1.022 fold
- SNRP70 expression (0.5 h, 100 μM, vs time zero): 3.59 fold
- SNRPA expression (0.5 h, 100 μM, vs time zero): 1.29 fold
- SNRPB2 expression (0.5 h, 100 μM, vs time zero): 0.49 fold
- SNRPB expression (repeat 1) (0.5 h, 100 μM, vs time zero): 0.96 fold
- SNRPB expression (repeat 2) (0.5 h, 100 μM, vs time zero): 0.62 fold
- SNRPC expression (0.5 h, 100 μM, vs time zero): 1.28 fold
- SNRPD1 expression (repeat 1) (0.5 h, 100 μM, vs time zero): 2.098 fold
- SNRPD1 expression (repeat 2) (0.5 h, 100 μM, vs time zero): 0.755 fold
- SOX13 expression (0.5 h, 100 μM, vs time zero): 1.304 fold
- SP100 expression (repeat 1) (0.5 h, 100 μM, vs time zero): 1.72 fold
- SP100 expression (repeat 2) (0.5 h, 100 μM, vs time zero): 3.123 fold
- SP110 expression (repeat 1) (0.5 h, 100 μM, vs time zero): 5.725 fold
- SP110 expression (repeat 2) (0.5 h, 100 μM, vs time zero): 4.176 fold
- SP110 expression (repeat 3) (0.5 h, 100 μM, vs time zero): 1.149 fold
- SPTAN1 (α-fodrin) expression (repeat 1) (0.5 h, 100 μM, vs time zero): 0.41 fold
- SPTAN1 (α-fodrin) expression (repeat 2) (0.5 h, 100 μM, vs time zero): 0.49 fold
- SPTBN expression (0.5 h, 100 μM, vs time zero): 0.91 fold
- SSA2 (autoantigen SS-A/Ro) expression (repeat 2) (0.5 h, 100 μM, vs time zero): 0.709 fold
- SSA2 expression (repeat 1) (0.5 h, 100 μM, vs time zero): 1.009 fold
- SSA2 expression (repeat 3) (0.5 h, 100 μM, vs time zero): 0.505 fold
- SSA2 expression (repeat 4) (0.5 h, 100 μM, vs time zero): 0.596 fold
- SSB (autoantigen La) expression (repeat 1) (0.5 h, 100 μM, vs time zero): 0.838 fold
- SSB (autoantigen La) expression (repeat 2) (0.5 h, 100 μM, vs time zero): 0.711 fold
- SSNA1 expression (0.5 h, 100 μM, vs time zero): 1.354 fold
- SSSCA1 expression (0.5 h, 100 μM, vs time zero): 1.267 fold
- STRN3 expression (0.5 h, 100 μM, vs time zero): 0.425 fold
- TOP1 expression (repeat 1) (0.5 h, 100 μM, vs time zero): 0.85 fold
- TOP1 expression (repeat 2) (0.5 h, 100 μM, vs time zero): 0.62 fold
- UBTF expression (0.5 h, 100 μM, vs time zero): 0.498 fold
- XRCC5 (Ku autoantigen, 80 kDa) expression (repeat 1) (0.5 h, 100 μM, vs time zero): 2.338 fold
- XRCC5 (Ku autoantigen, 80 kDa) expression (repeat 2) (0.5 h, 100 μM, vs time zero): 1.87 fold
- dJ963E22.1 expression (0.5 h, 100 μM, vs time zero): 1.842 fold
- α-NAC expression (0.5 h, 100 μM, vs time zero): 0.632 fold
